Results on 13 compounds are retold here after US11230541B2, “Heterocyclic compound” (Takeda Pharmaceutical Company Limited, priority 2017, dated 2022).

Assay [1] has as its target T1, NMDA receptor containing the NR2B subunit (Rattus norvegicus, UniProt Q00960).
T1 construct: host or cells: rodents, in vivo
As to conditions: rodents; cited from earlier work.

Assay [2] relates to NMDA receptor. As to conditions: in vivo; cited from earlier work.
The target of assay [3] is T2, NMDA receptor containing the NR2B subunit (Homo sapiens, UniProt Q13224). The note with it: continuous intravenous administration; cited from earlier work.
T2 sequence (Q13224 27-1484, other chains not shown): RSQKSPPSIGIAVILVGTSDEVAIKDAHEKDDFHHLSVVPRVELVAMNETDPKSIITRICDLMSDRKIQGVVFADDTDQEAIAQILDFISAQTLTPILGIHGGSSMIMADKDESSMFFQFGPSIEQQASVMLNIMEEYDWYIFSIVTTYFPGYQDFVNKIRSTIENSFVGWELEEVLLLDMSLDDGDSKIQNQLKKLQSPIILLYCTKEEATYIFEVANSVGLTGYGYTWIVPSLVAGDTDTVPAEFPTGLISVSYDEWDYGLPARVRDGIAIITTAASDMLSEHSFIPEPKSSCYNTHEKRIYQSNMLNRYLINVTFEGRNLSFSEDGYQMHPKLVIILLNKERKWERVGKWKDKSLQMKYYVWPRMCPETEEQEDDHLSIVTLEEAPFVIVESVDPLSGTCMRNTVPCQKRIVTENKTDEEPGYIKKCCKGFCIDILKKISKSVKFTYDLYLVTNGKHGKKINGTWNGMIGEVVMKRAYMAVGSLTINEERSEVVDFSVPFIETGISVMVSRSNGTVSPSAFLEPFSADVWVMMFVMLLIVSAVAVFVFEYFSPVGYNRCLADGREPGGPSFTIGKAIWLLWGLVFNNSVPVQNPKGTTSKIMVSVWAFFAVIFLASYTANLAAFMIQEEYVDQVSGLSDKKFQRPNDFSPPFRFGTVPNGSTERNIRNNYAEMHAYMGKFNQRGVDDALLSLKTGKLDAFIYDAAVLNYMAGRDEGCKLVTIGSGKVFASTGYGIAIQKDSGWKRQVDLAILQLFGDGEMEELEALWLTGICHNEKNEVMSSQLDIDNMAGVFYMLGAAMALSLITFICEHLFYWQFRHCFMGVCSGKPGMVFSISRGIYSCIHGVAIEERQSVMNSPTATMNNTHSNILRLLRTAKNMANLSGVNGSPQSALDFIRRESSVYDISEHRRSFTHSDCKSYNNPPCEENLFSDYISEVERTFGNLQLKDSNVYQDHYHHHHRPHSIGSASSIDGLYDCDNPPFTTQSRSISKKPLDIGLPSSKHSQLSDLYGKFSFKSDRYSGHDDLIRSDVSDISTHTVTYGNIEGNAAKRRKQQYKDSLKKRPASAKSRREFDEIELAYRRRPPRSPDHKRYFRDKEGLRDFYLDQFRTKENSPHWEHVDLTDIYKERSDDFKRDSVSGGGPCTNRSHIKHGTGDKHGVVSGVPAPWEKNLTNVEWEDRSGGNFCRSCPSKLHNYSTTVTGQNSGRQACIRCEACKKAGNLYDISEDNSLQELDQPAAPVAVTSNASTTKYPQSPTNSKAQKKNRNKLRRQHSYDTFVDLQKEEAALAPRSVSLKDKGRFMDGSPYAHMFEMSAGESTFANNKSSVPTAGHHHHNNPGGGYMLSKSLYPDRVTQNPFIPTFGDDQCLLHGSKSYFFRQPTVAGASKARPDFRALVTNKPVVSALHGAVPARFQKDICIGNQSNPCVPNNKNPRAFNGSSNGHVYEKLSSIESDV
Assay [4] concerns NMDA receptor. As to conditions: continuous intravenous administration; cited from earlier work.
The target in assay [5] is T2, NMDA receptor containing the NR2B subunit. The note with it: in vivo; cited from earlier work.
Assay [6] deals with T3, NMDA receptor composed of four subunits including 2 sets of heterodimers of NR1 and NR2B (Homo sapiens, UniProt Q13224).
T3 construct: host or cells: HEK293 (tetracycline-induced expression)
T3 sequence (Q13224 27-1484, other chains not shown): as above
Nature of the assay: NR2B Ca2+ influx assay (FLIPR, Fluo-4) in HEK293 cells expressing human GRIN1 and GRIN2B. As to conditions: HEK293, 10 μM final compound concentration, glutamic acid/glycine-induced Ca2+ influx, read-out: inhibitory rate (10 μM compound concentration). The format is cell-based. Put shortly:
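Tetracycline-induced (2 h) HEK293 cells expressing human GRIN1/GRIN2B, Fluo-4-loaded, were preincubated 15 min at room temperature with compound at 10 μM final. FLIPR recorded Ca2+ influx every 3 s for 5 min after glutamate/glycine addition (30 μM in added buffer); inhibition from cumulative fluorescence relative to agonist-free wells.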

T1 sequence (Q00960 27-1482, other chains not shown): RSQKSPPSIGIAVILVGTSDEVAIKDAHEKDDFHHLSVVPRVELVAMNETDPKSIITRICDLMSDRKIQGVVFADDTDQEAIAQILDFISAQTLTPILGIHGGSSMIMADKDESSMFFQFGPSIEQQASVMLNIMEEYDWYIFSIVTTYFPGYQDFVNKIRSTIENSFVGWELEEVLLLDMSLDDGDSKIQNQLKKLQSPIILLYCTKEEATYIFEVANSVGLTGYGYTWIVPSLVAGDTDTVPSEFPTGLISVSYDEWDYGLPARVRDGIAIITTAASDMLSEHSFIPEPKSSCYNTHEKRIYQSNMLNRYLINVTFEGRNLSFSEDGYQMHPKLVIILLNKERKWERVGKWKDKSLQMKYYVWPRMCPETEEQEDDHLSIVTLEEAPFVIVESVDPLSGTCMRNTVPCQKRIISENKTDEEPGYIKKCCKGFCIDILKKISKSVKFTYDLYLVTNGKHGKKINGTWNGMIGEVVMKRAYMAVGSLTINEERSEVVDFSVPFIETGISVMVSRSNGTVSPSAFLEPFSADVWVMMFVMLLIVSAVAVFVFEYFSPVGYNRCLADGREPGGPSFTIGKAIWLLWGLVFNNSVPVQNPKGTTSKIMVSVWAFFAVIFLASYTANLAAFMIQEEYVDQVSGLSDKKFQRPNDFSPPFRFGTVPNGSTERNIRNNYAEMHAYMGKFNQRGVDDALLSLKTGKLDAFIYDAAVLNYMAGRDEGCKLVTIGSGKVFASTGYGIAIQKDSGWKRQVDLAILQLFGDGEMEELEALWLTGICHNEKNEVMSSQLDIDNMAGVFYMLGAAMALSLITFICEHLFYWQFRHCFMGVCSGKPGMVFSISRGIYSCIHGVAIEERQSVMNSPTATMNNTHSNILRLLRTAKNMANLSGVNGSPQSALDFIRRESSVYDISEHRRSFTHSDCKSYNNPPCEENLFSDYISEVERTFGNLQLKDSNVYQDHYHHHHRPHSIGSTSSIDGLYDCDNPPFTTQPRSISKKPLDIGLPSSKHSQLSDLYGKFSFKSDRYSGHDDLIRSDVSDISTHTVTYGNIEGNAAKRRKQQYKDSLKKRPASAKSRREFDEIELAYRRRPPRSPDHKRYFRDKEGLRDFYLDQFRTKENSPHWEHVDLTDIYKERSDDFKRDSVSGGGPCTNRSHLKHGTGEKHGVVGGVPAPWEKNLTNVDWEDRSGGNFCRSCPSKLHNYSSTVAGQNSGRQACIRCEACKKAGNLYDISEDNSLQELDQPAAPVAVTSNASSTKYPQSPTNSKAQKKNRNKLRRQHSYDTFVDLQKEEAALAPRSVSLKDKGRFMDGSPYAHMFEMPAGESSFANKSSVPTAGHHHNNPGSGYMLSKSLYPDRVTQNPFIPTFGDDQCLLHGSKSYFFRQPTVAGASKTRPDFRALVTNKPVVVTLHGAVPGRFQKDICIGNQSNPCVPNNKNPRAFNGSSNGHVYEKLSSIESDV

In the case of `C[C@@H](CN1CCC(Cc2ccccc2)CC1)[C@@H](O)c1ccc(O)cc1` [Ro25-6981], in assay [1], the “number of occurrence and depth of cortical spreading depression” value was “suppress the number of occurrence and the depth of cortical spreading depression”. Turning to `CC12CC3CC(C)(C1)CC(N)(C3)C2` [memantine], the “peripheral symptoms of dementia” value in assay [2] is listed as “partially improves peripheral symptoms of dementia”. Turning to `C[C@@H]([C@@H](O)c1ccc(O)cc1)N1CCC(O)(c2ccccc2)CC1` [CP-101, 606], the treatment resistant-depression symptom entry in assay [3] was “significantly improves treatment resistant-depression symptom”. In addition, the “number of occurrence and depth of cortical spreading depression” value in assay [1] is “suppress the number of occurrence and the depth of cortical spreading depression”.

Take `CNC1(c2ccccc2Cl)CCCCC1=O` (centres unmarked) [ketamine]: the “depression symptom accompanying major depression and bipolar disorder” value in assay [4] is “improves depression symptom accompanying major depression and bipolar disorder rapidly and in a sustained manner”. Consider `CC(C(O)c1ccc(O)cc1)N1CCC(Cc2ccccc2)CC1` (centres unmarked) [Ifenprodil], for which the pain sense threshold result in assay [5] was “pain sense threshold increases”. Take `COc1ncc(C(=O)NCc2c(C3CC3)ccc3[nH]ncc23)cc1F` [Example 96, N-((5-cyclopropyl-1H-indazol-4-yl)methyl)-fluoro-6-methoxy-nicotinamide]: the inhibition at 10 µM in assay [6] stood at 93%. Same read-out and setting: the value for `COc1ccc2ncn(C)c2c1CNC(=O)c1cc(F)c(C)c(F)c1` [Example 9, 3,5-difluoro-N-((6-methoxy-1-methyl-1H-benzimidazol-7-yl)methyl)-4-methylbenzamide] was 92%. Regarding `COc1ccc2nc(C)n(C)c2c1CNC(=O)c1cc(F)c(C)c(F)c1` [Example 239, 3,5-difluoro-N-((6-methoxy-1,2-dimethyl-1H-benzimidazol-7-yl)methyl)-4-methylbenzamide], the inhibition at 10 µM in assay [6] was 60%. The same measure, in the same setting: the figure for `COc1csc(C(=O)NCc2c(C3CC3)ccc3[nH]ncc23)c1` [Example 68, N-((5-cyclopropyl-1H-indazol-4-yl)methyl)-methoxythiophene-2-carboxamide] is 86%.

As for `Cc1ccc2ncn(C)c2c1CNC(=O)c1cnc(OC(F)F)c(F)c1` [Example 134, 6-(Difluoromethoxy)-N-((1,6-dimethyl-1H-benzimidazol-7-yl)methyl)-5-fluoronicotinamide], the inhibition at 10 µM in assay [6] turned out to be 90%. Turning to `COc1ccc(C(=O)NCc2c(C)ccc3ncn(C)c23)cc1F` [Example 129, N-((1,6-dimethyl-1H-benzimidazol-7-yl)methyl)-3-fluoro-4-methoxybenzamide], the inhibition at 10 µM in assay [6] was found to be 88%.

For `COc1ccc2ncn(C)c2c1CNC(=O)c1ccc(C)cc1` [Example 114, N-((6-methoxy-1-methyl-1H-benzimidazol-7-yl)methyl)-4-methylbenzamide], the inhibition at 10 µM in assay [6] stood at 87%. On the same count and under the same terms, the value for `COc1ccc2ncn(C)c2c1CNC(=O)c1cc(F)c(OC(F)F)c(F)c1` [Example 161, 4-(difluoromethoxy)-3,5-difluoro-N-((6-methoxy-1-methyl-1H-benzimidazol-7-yl)methyl)benzamide] was 92%.
